Like-named read-outs stand apart in the source and are kept apart here.
Legend:
HLA-B*1301 allele = HLA-B*1301 allele (Homo sapiens, UniProt P01889, A65T/A93T/A95T/D138N/D201E/D98Y/E176V/E204Q/E69M/E70A/G107R/K202T/L105A/L119I/N104T/N87E/Q94N/R106L/R155S/R169L/R180L/S101N/S121R/S35A/S48T/T118I/V127L/V36M/Y140L/Y91S); conditions: HLA-B*13:01
HLA-B*1502 allele = HLA-B*1502 allele (Homo sapiens, UniProt P01889, A329T/A93T/A95T/C349S/D201E/D98Y/E187L/E204Q/E69M/E70A/H137Y/K202T/L119I/Q94N/R155S/R180L/S121R/S35A/S48A/T118I/V306I/V36M/Y140S/Y91S); conditions: HLA-B*15:02
HLA-B*3802 allele = HLA-B*3802 allele (Homo sapiens, UniProt P01889, A182T/A93T/A95T/C349S/D138N/D201E/D98Y/E176V/E187T/E204Q/G107R/K202T/L105A/N104T/Q94N/R106L/R155S/R180L/S101N/S121R/Y140F/Y91C); conditions: HLA-B*38:02
HLA-B*3901 allele = HLA-B*3901 allele (Homo sapiens, UniProt P01889, A182T/A93T/A95T/C349S/D138N/D201E/E176V/E187T/E204Q/K202T/Q94N/R155S/R180L/S121R/Y140F/Y91C); conditions: HLA-B*39:01
[1] = test system: combination of HLA-B*1301 allele and HLA-B*3901 allele; conditions: in vivo
[2] = test system: combination of HLA-B*1502 allele and HLA-B*3802 allele; conditions: in vivo
[3] = test system: combination of HLA-B*1301 allele, HLA-B*3802 allele and HLA-B*3901 allele; conditions: in vivo
[4] = test system: combination of HLA-B*1301 allele, HLA-B*1502 allele, HLA-B*3802 allele and HLA-B*3901 allele; conditions: in vivo
[5] = patients taking sulfasalazine; clinical setting; cited from earlier work
[6] = Sulfasalazine-DRESS patients, listed as sulfasalazine
[7] = Sulfasalazine-DRESS vs healthy control
[8] = Sulfasalazine-DRESS vs healthy control, listed as sulfasalazine
[9] = Sulfasalazine-SCAR vs healthy control
[10] = Sulfasalazine-SJS/TEN vs healthy control
[11] = Sulfasalazine-SJS/TEN patients, listed as sulfasalazine
[12] = Sulfasalazine-SJS/TEN vs healthy control, listed as sulfasalazine

Sensitivity (%) (HLA-B*1301 allele; Sulfasalazine-DRESS): 38.10%
Specificity (%) (HLA-B*1301 allele; Sulfasalazine-DRESS): 87.89%
SCAR N (%) carrying the allele (HLA-B*1301 allele; Sulfasalazine-DRESS patients): 8/21
SCAR N (%) carrying the allele (HLA-B*1301 allele; [6]): 8 of 21
Odds Ratio (95% CI) (HLA-B*1301 allele; [7]): 4.5
Odds Ratio (95% CI) (HLA-B*1301 allele; [8]): 4.5 (1.8-11.0)
Sensitivity (%) (HLA-B*1301 allele; Sulfasalazine-SCAR): 28.13%
Specificity (%) (HLA-B*1301 allele; Sulfasalazine-SCAR): 87.89%
SCAR N (%) carrying the allele (HLA-B*1301 allele; Sulfasalazine-SCAR patients): 9/32
Odds Ratio (95% CI) (HLA-B*1301 allele; [9]): 2.8
Sensitivity (%) (HLA-B*1301 allele; Sulfasalazine-SJS/TEN): 9.09%
Specificity (%) (HLA-B*1301 allele; Sulfasalazine-SJS/TEN): 87.89%
SCAR N (%) carrying the allele (HLA-B*1301 allele; Sulfasalazine-SJS/TEN patients): 1/11
Odds Ratio (95% CI) (HLA-B*1301 allele; [10]): 0.7
Sensitivity (%) (HLA-B*1502 allele; Sulfasalazine-DRESS): 9.53%
Specificity (%) (HLA-B*1502 allele; Sulfasalazine-DRESS): 90.75%
SCAR N (%) carrying the allele (HLA-B*1502 allele; Sulfasalazine-DRESS patients): 2/21
Odds Ratio (95% CI) (HLA-B*1502 allele; [7]): 1.0
Sensitivity (%) (HLA-B*1502 allele; Sulfasalazine-SCAR): 21.88%
Specificity (%) (HLA-B*1502 allele; Sulfasalazine-SCAR): 90.75%
SCAR N (%) carrying the allele (HLA-B*1502 allele; Sulfasalazine-SCAR patients): 7/32
Odds Ratio (95% CI) (HLA-B*1502 allele; [9]): 2.7
Sensitivity (%) (HLA-B*1502 allele; Sulfasalazine-SJS/TEN): 45.45%
Specificity (%) (HLA-B*1502 allele; Sulfasalazine-SJS/TEN): 90.75%
SCAR N (%) carrying the allele (HLA-B*1502 allele; Sulfasalazine-SJS/TEN patients): 5/11
SCAR N (%) carrying the allele (HLA-B*1502 allele; [11]): 5 out of 11
Odds Ratio (95% CI) (HLA-B*1502 allele; [10]): 8.2
Odds Ratio (95% CI) (HLA-B*1502 allele; [12]): 8.2 (2.4-27.4)
Sensitivity (%) (HLA-B*3802 allele; Sulfasalazine-DRESS): 0%
Specificity (%) (HLA-B*3802 allele; Sulfasalazine-DRESS): 92.45%
SCAR N (%) carrying the allele (HLA-B*3802 allele; Sulfasalazine-DRESS patients): 0/21
Odds Ratio (95% CI) (HLA-B*3802 allele; [7]): 0.3
Sensitivity (%) (HLA-B*3802 allele; Sulfasalazine-SCAR): 18.75%
Specificity (%) (HLA-B*3802 allele; Sulfasalazine-SCAR): 92.45%
SCAR N (%) carrying the allele (HLA-B*3802 allele; Sulfasalazine-SCAR patients): 6/32
Odds Ratio (95% CI) (HLA-B*3802 allele; [9]): 2.8
Sensitivity (%) (HLA-B*3802 allele; Sulfasalazine-SJS/TEN): 54.54%
Specificity (%) (HLA-B*3802 allele; Sulfasalazine-SJS/TEN): 92.45%
SCAR N (%) carrying the allele (HLA-B*3802 allele; Sulfasalazine-SJS/TEN patients): 6/11
SCAR N (%) carrying the allele (HLA-B*3802 allele; [11]): 6 out of 11
Odds Ratio (95% CI) (HLA-B*3802 allele; [10]): 14.7
Odds Ratio (95% CI) (HLA-B*3802 allele; [12]): 14.7 (4.4-49.4)
Sensitivity (%) (HLA-B*3901 allele; Sulfasalazine-DRESS): 38.10%
Specificity (%) (HLA-B*3901 allele; Sulfasalazine-DRESS): 95.43%
SCAR N (%) carrying the allele (HLA-B*3901 allele; Sulfasalazine-DRESS patients): 8/21
SCAR N (%) carrying the allele (HLA-B*3901 allele; [6]): 8 of 21
Odds Ratio (95% CI) (HLA-B*3901 allele; [7]): 12.2
Odds Ratio (95% CI) (HLA-B*3901 allele; [8]): 12.2 (4.6-32.5)
Sensitivity (%) (HLA-B*3901 allele; Sulfasalazine-SCAR): 28.13%
Specificity (%) (HLA-B*3901 allele; Sulfasalazine-SCAR): 95.43%
SCAR N (%) carrying the allele (HLA-B*3901 allele; Sulfasalazine-SCAR patients): 9/32
Odds Ratio (95% CI) (HLA-B*3901 allele; [9]): 8.2
Sensitivity (%) (HLA-B*3901 allele; Sulfasalazine-SJS/TEN): 0%
Specificity (%) (HLA-B*3901 allele; Sulfasalazine-SJS/TEN): 95.43%
SCAR N (%) carrying the allele (HLA-B*3901 allele; Sulfasalazine-SJS/TEN patients): 0/11
Odds Ratio (95% CI) (HLA-B*3901 allele; [10]): 1.1
Specificity (%) [1]: 83.95%
Specificity (%) [2]: 83.74%
SCAR N (%) carrying the alleles [3]: 22/32
Sensitivity (%) [3]: 68.75%
Specificity (%) [3]: 78.32%
SCAR N (%) carrying the alleles [4]: 24/32
Sensitivity (%) [4]: 75.00%
Specificity (%) [4]: 60.35%
SMILES: O=C(O)c1cc(/N=N/c2ccc(S(=O)(=O)Nc3ccccn3)cc2)ccc1O [Sulfasalazine]
patients developing obvious side effects [5]: Approximately 25%
